Calls of active or inactive are those of the source. No cut-off for these calls is given here. Starred links: 1 amine or outer side, 2 acyl side, 3 side chain; linkers in the order of their positions; H or OH if unused. Non-standard residues stand in square brackets, D forms with d. Residues, ends and D or L forms follow the SMILES beside them. *: point of attachment. C20 diacid = O=C(O)CCCCCCCCCCCCCCCCCCC(=O)*; γGlu = O=C(O)[C@H](CCC(=O)[*:2])N[*:1]; Iva = CC[C@](C)(N)C(=O)O; PEG2 = NCCOCCOCCC(=O)O
Key:
Assay type in all cases: functional, organism-based
Mus musculus [1] = assay: Antifibrotic activity against BLM-induced C57BL/6 mouse pulmonary fibrosis model assessed as reduction in ECM1 gene expression at 240 ug/kg/day, sc administered for 2 weeks starting from 7 days post BLM induction and measured after 21 days post BLM induction by ScRNA-sequencing analysis; conditions: dose 240.0 µg/kg/day
Mus musculus [2] = assay: Antifibrotic activity against BLM-induced C57BL/6 mouse pulmonary fibrosis model assessed as reduction in MMP-12 expression at 240 ug/kg/day, sc administered for 2 weeks starting from 7 days post BLM induction and measured after 21 days post BLM induction in presence of Clo-Lip; conditions: dose 240.0 µg/kg/day
Mus musculus [3] = assay: Antifibrotic activity against BLM-induced C57BL/6 mouse pulmonary fibrosis model assessed as reduction in vimentin gene expression at 240 ug/kg/day, sc administered for 2 weeks starting from 7 days post BLM induction and measured after 21 days post BLM induction by ScRNA-sequencing analysis; conditions: dose 240.0 µg/kg/day
Mus musculus [4] = assay: Antifibrotic activity against BLM-induced C57BL/6 mouse pulmonary fibrosis model assessed as reduction in Cthrc1 gene expression at 240 ug/kg/day, sc administered for 2 weeks starting from 7 days post BLM induction and measured after 21 days post BLM induction by ScRNA-sequencing analysis; conditions: dose 240.0 µg/kg/day
Mus musculus [5] = assay: Antifibrotic activity against BLM-induced C57BL/6 mouse pulmonary fibrosis model assessed as reduction in mortality at 150 ug/kg, sc administered for 2 weeks starting from 7 days post BLM induction and measured after 21 days post BLM induction; conditions: dose 150.0 µg/kg
Mus musculus [6] = assay: Antifibrotic activity against BLM-induced C57BL/6 mouse pulmonary fibrosis model assessed as downregulation of IL-6 gene expression in lung tissue at 150 ug/kg, sc administered for 2 weeks starting from 7 days post BLM induction and measured after 21 days post BLM induction by RT-qPCR assay; conditions: dose 150.0 µg/kg

CC[C@](C)(NC(=O)[C@@H](NC(=O)CCOCCOCCNC(=O)CCOCCOCCNC(=O)CC[C@H](NC(=O)CCCCCCCCCCCCCCCCCCC(=O)O)C(=O)O)C(C)C)C(=O)NCC(=O)N[C@@H](CO)C(=O)N1CCC[C@H]1C(=O)N[C@@H](CO)C(=O)N[C@@H](C)C(=O)N[C@@H](CCC(N)=O)C(=O)N[C@@H](CCC(=O)O)C(=O)N[C@@H](CCC(=O)O)C(=O)N[C@@H](C)C(=O)N[C@@H](CO)C(=O)N1CCC[C@H]1C(=O)N[C@@H](C)C(N)=O ({C20 diacid-γGlu-PEG2-PEG2}-V[Iva]GSPSAQEEASPA-NH2)
Activity (Mus musculus [1]): Active | Activity (Mus musculus [2]): inactive | Activity (Mus musculus [3]): Active | Activity (Mus musculus [4]): Active | Activity (Mus musculus [5]): Active | Activity (Mus musculus [6]): Active

Reference: ChEMBL document CHEMBL5543137, “Design and Synthesis of Novel Ultralong-Acting Peptides as EDP-EBP Interaction Inhibitors for Pulmonary Fibrosis Treatment” (J Med Chem, 2024)
